The target in series [1] is T1, Steroid 17-alpha-hydroxylase/17,20 lyase (Homo sapiens, UniProt P05093).
T1 sequence (P05093 whole entry): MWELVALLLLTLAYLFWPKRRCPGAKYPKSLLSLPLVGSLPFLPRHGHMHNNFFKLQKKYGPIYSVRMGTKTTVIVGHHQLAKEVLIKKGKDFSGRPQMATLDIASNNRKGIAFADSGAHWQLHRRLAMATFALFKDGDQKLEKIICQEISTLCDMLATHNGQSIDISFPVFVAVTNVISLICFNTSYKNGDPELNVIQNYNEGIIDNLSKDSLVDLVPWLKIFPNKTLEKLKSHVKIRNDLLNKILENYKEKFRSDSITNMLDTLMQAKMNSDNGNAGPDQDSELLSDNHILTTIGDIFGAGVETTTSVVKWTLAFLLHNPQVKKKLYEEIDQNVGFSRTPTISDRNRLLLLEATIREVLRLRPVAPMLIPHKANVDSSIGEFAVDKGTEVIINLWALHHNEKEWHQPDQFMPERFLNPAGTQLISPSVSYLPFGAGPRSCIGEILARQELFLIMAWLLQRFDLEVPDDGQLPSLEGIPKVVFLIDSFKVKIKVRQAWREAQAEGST
The series is described as follows: (§1) Inhibition of human CYP17 expressed in Escherichia coli at 2.5 uM. Conditions: 2.5 µM; call rule not given here.

Another series has as its target T2, Aromatase (Homo sapiens, UniProt P11511).
T2 sequence (P11511 whole entry): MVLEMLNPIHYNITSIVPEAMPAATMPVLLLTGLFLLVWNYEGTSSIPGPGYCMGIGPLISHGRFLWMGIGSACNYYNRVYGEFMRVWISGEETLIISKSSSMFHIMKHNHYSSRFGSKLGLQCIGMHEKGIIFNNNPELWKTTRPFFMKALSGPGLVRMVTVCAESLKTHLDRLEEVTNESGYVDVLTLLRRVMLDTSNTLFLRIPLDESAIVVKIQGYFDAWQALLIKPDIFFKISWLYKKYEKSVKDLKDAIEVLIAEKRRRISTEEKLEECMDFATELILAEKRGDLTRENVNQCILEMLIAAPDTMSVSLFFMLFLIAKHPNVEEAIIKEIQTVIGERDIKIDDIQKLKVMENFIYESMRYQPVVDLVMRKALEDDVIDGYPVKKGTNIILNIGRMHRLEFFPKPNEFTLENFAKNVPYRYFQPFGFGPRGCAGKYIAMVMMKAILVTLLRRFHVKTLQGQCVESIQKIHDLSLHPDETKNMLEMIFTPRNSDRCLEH
The series is described as follows: Inhibition of CYP19 in human placental microsomes. Also on record: species or system Placenta.

In series [2] the target is T3, CYP17 (steroid 17-alpha-hydroxylase/17,20 lyase) (Homo sapiens, UniProt P05093).
T3 sequence (P05093 whole entry): T1 sequence (P05093 whole entry)
The description is as §1. Conditions: recombinant human CYP17 expressed in Escherichia coli.

For the molecule `O=C(c1ccccc1)c1ccc(Cn2ccnc2)cc1`, the Inhibition result in series [1] is listed as “Not Active”.

For `O=C(c1ccccc1)c1cc(Br)ccc1Cn1ccnc1`, 400 nM corresponded to half-maximal inhibition on Aromatase (IC50). In addition, in series [2], the inhibition (as a rule, how much of the control response was suppressed) at 2.5 µM is 15%.

For `O=C(c1ccccc1)c1cc([N+](=O)[O-])ccc1Cn1ccnc1`, it took 25.9 nM to reach half-maximal inhibition at Aromatase (IC50). Also, in series [1], the Inhibition result is listed as “Not Active”.

Turning to `O=C(c1ccc(-c2ccccc2)cc1)c1cc([N+](=O)[O-])ccc1Cn1ccnc1`, half-maximal inhibition against Aromatase (IC50) required 17.7 nM. Further, in series [2], the inhibition at 2.5 µM amounted to 17%.

In the case of `O=C(c1ccc(-c2ccccc2)cc1)c1ccccc1Cn1ccnc1`, the IC50 (as a rule, the point on the concentration scale where inhibition reaches its midpoint) against Aromatase came out at 260 nM. Besides, the inhibition at 2.5 µM in series [2] stood at 24%.

With `O=C(c1ccc(-c2ccccc2)cc1)c1cccc(Cn2ccnc2)c1`, the IC50 on Aromatase came out at 5.3 nM. Besides, the Inhibition entry in series [1] is “Not Active”.

`O=C(c1ccccc1)c1ccccc1Cn1ccnc1` gave an IC50 on Aromatase of 560 nM. The Inhibition result in series [1] is listed as “Not Active”.

`O=C(c1ccccc1)c1cc(Cn2ccnc2)ccc1[N+](=O)[O-]` came in with an IC50 against Aromatase of 31 nM. Further, in series [1], the Inhibition result is given as “Not Active”.

With `O=C(c1ccccc1)c1cccc(Cn2ccnc2)c1`, the IC50 against Aromatase stood at 7.3 nM. In addition, the Inhibition result in series [1] is “Not Active”.

As to `N#Cc1ccc(C2CCCc3cncn32)cc1` (stereo not drawn) [FADROZOLE], the Inhibition entry in series [1] is “Not Active”.
